Source: patent US9738591B2, “Antimicrobial compounds” (priority 2009, dated 2017)
Values after ≈ are worked out from the molar mass of the structure shown. Where two headings read alike, the source gives them in different places.

Tests used:
[1] = system: Streptococcus pneumoniae ATCC 49619; test: Disk diffusion; settings: 10 mg/ml, 20 μl, Mueller Hinton + Blood & Incubated in 5% CO2
[2] = system: Listeria monocytogenes NCTC 7973; test: Disk diffusion; settings: 10 mg/ml, 20 μl
[3] = system: S. aureus and S. epidermidis; test: MIC by broth microdilution; format: cell-based; settings: CA-MHB, read-out: lowest MICs
Description: The method used was based on CLSI protocols for broth microdilution testing of these species. As recommended by CLSI, inocula were prepared by direct colony suspension, and the media used were cation-adjusted Mueller Hinton broth (CA-MHB) for Staphylococcus spp. and CA-MHB containing 5% lysed horse blood (CA-MHB+LHB) for Streptococcus spp. Briefly, 24 h blood agar plate (BA) cultures of Staphylococcus aureus strains NCTC 6571, ATCC 29213, ATCC 33592 (MRSA) and NCTC 10442 (MRSA), Staphylococcus epidermidis ATCC 29971, Staphylococcus xylosus ATCC 29971, Streptococcus pneumoniae strains ATCC 49619 and ATCC 6305, and Streptococcus pyogenes strains NCTC 8191 and NCTC 8302 were used to prepare 0.5 McFarland suspensions in saline. Two 640 μg/ml working stocks of TSB007 were prepared from a fresh master stock, one in CA-MHB for testing against the Staphylococcus spp. and the other in CA-MHB+LHB for testing against Streptococcus spp. […]
The wells of two 96-well microtitre trays (one for Staphylococcus spp. and one for Streptococcus spp.) were filled with 100 μl of the appropriate broth, except for the first column. […] The microtitre trays were then incubated at 35° C. for 24 h before the MICs were read visually. Wells were further subcultured (10 μl drop onto BA then incubated at 35° C. for 24 h) and colonies subsequently counted to determine minimum bactericidal concentrations (MBCs). […]

[4] = system: Streptococcus pneumoniae strain 12213; test: Disk diffusion; format: cell-based; settings: 10 mg/ml, 20 μl
[5] = system: Enterococcus faecium ATCC 19434; test: Disk diffusion; format: cell-based; settings: 10 mg/ml, 20 μl
[6] = system: Stenotrophomonas maltophilia M2495; test: Disk diffusion; format: cell-based; settings: 10 mg/ml, 20 μl, strain M2495
[7] = system: Aeromonas hydrophila NCTC 8049/ATCC 7966; test: Disk diffusion; settings: 10 mg/ml, 20 μl; repeat
[8] = system: Staphylococcus aureus (methicillin resistant) NCTC 10442; test: Disk diffusion; settings: for zone of inhibition at 10000 µg/mL: Staphylococcus aureus
[9] = system: Citrobacter freundii NCTC 9750/ATCC 8090; test: Disk diffusion; settings: 10 mg/ml, 20 μl; repeat
[10] = system: Micrococcus luteus ATCC 10240; test: Disk diffusion; settings: 10 mg/ml, 20 μl

With `O=C(O)c1ccc(/C=C/c2cc(/C=C/c3ccc(C(=O)O)cc3)cc(/C=C/c3ccc(C(=O)O)cc3)c2)cc1` [TSB007] the “Zone diameters, 24 h TSB007” value ([1]; 24 h) was 16 trim, the “Zone diameters, 48 h TSB007” value ([1]; 48 h) was 16 trim and the “Zone diameters, 24 h TSB007” value ([2]; 24 h) was 9 trim. For the same molecule, the “Zone diameters, 48 h TSB007” value ([2]; 48 h) was 9 trim, the “Zone diameters, Repeat Results” value ([2]; repeat, value printed with '?') was 15? trim and the MIC [3] was 4 mg/L (≈ 7.74 µM). For the same molecule, the “Zone diameters, Repeat Results” value [4] was 26 trim, the “Zone diameters, 24 h TSB007” value ([5]; 24 h) was 11 trim and the “Zone diameters, 48 h TSB007” value ([5]; 48 h) was 10 trim. For the same molecule, the “Zone diameters, Repeat Results” value [6] was 9 trim, the “Zone diameters, Repeat Results” value [7] was 8 trim and the “Zone diameters, 24 h TSB007” value ([8]; 10 mg/ml, 20 μl, 24 h) was 18 trim. The “Zone diameters, 48 h TSB007” value ([8]; 10 mg/ml, 20 μl, 48 h) was 9 trim, the “Zone diameters, Repeat Results” value ([8]; 10 mg/ml, 20 μl, repeat) was 23 trim and the zone of inhibition at 10000 µg/mL ([8]; NCTC10442, 24 h, read-out: Zone diameters, 24 h AnO2) was 17 mm. The zone of inhibition at 10000 µg/mL ([8]; NCTC10442, 24 h, read-out: Zone diameters, 24 h O2) was 14 mm, the zone of inhibition at 10000 µg/mL ([8]; NCTC10442, 48 h, read-out: Zone diameters, 48 h AnO2) was 17 mm and the zone of inhibition at 10000 µg/mL ([8]; NCTC10442, 48 h, read-out: Zone diameters, 48 h O2) was 11 mm. For the same molecule, the “Zone diameters, Repeat Results” value [9] was 9 trim, the “Zone diameters, 24 h TSB007” value ([10]; 24 h) was 26 trim and the “Zone diameters, 48 h TSB007” value ([10]; 48 h) was 26 trim. The “Zone diameters, Repeat Results” value ([10]; repeat) was 32 trim.
